Reference: patent US5210193A, “Piperazine derivatives” (American Cyanamid Company, priority 1990, dated 1993)
In brackets after ≈: the same amount, converted by molar mass. Read-outs that look alike come from different tables or passages of the source.

Columns and labels:
[1] = tested on: Enterobacter cloacae MOR 84-30; test: in vitro antibacterial MIC, agar plate dilution; assay type: cell-based; details: 35° C.
Procedure, shortened: (§1)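 Minimal inhibitory concentrations came from agar plate dilution in Mueller-Hinton medium. Each organism was delivered at roughly 10^4 CFU by Steers replicator. Plates were read for visible growth after 18 hours at 35° C, values in mcg/ml.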

[2] = tested on: Escherichia coli VGH 84-19; test: in vitro antibacterial MIC, agar plate dilution; assay type: cell-based; details: Escherichia coli, VGH8419, 18 h, 35° C., read-out: MIC
Procedure, shortened: as §1

[3] = tested on: Morganella morganii MOR 84-45; test: in vitro antibacterial MIC, agar plate dilution; assay type: cell-based; details: Morganella morganii, MOR8445, 18 h, 35° C., read-out: MIC
Procedure, shortened: as §1

[4] = tested on: Morganella morganii VHG 84-12; test: in vitro antibacterial MIC, agar plate dilution; assay type: cell-based; details: Morganella morganii, VHG8412, 18 h, Morganella morganii VHG 84-12 (VGH 84-12 for Example 131), 35° C., read-out: MIC
Procedure, shortened: as §1

[5] = tested on: Providencia stuarti CMC 83-3; test: in vitro antibacterial MIC, agar plate dilution; assay type: cell-based; details: Providencia, CMC833, 18 h, 35° C., read-out: MIC
Procedure, shortened: as §1

[6] = tested on: Pseudomonas aeruginosa CMC 83-20; test: in vitro antibacterial MIC, agar plate dilution; assay type: cell-based; details: Pseudomonas aeruginosa, CMC8320, 18 h, 35° C., read-out: MIC
Procedure, shortened: as §1

[7] = tested on: Serratia marcescens K 84-18; test: in vitro antibacterial MIC, agar plate dilution; assay type: cell-based; details: Serratia marcescens, K8418, 18 h, 35° C., read-out: MIC
Procedure, shortened: as §1

[8] = tested on: Staphylococcus aureus Smith; test: in vitro antibacterial MIC, agar plate dilution; assay type: cell-based; details: 35° C.
Procedure, shortened: as §1

[9] = tested on: Streptococcus faecalis CMC 83-120; test: in vitro antibacterial MIC, agar plate dilution; assay type: cell-based; details: Enterococcus faecalis, CMC83120, 18 h, 35° C., read-out: MIC
Procedure, shortened: as §1

[10] = tested on: Acinetobacter calcoaceticus MOR 84-43; test: in vitro antibacterial MIC, agar plate dilution; assay type: cell-based; details: MOR8443, 18 hours, 35° C., read-out: MIC
Procedure, shortened: as §1

[11] = tested on: Enterobacter aerogenes VGH 84-36; test: in vitro antibacterial MIC, agar plate dilution; assay type: cell-based; details: Klebsiella aerogenes, VGH8436, 18 hours, 35° C., read-out: MIC
Procedure, shortened: as §1

Escherichia coli NAR 311 = test: in vitro antibacterial MIC, agar plate dilution; assay type: cell-based; details: NAR311, 18 hours, 35° C., read-out: MIC
Procedure, shortened: as §1

[12] = tested on: Klebsiella oxytoca MOR 84-28; test: in vitro antibacterial MIC, agar plate dilution; assay type: cell-based; details: MOR8428, 18 hours, 35° C.
Procedure, shortened: as §1

Klebsiella pneumoniae AD = test: in vitro antibacterial MIC, agar plate dilution; assay type: cell-based; details: Klebsiella pneumoniae, 18 h, 35° C., read-out: MIC
Procedure, shortened: as §1

[13] = tested on: Klebsiella pneumoniae MOR 84-4; test: in vitro antibacterial MIC, agar plate dilution; assay type: cell-based; details: Klebsiella pneumoniae, MOR844, 18 h, 35° C., read-out: MIC
Procedure, shortened: as §1

[14] = tested on: Morganella morganii VGH 84-11; test: in vitro antibacterial MIC, agar plate dilution; assay type: cell-based; details: VGH8411, 18 hours, 35° C., read-out: MIC
Procedure, shortened: as §1

[15] = tested on: Serratia marcescens F 0-35; test: in vitro antibacterial MIC, agar plate dilution; assay type: cell-based; details: Serratia marcescens, F035, 18 h, 35° C., read-out: MIC
Procedure, shortened: as §1

[16] = tested on: Staphylococcus Spp saprophiticus VGH 84-50; test: in vitro antibacterial MIC, agar plate dilution; assay type: cell-based; details: 18 hours, 35° C., read-out: MIC
Procedure, shortened: as §1

[17] = tested on: Staphylococcus aureus CMC 83-128; test: in vitro antibacterial MIC, agar plate dilution; assay type: cell-based; details: CMC83128, 18 hours, 35° C., read-out: MIC
Procedure, shortened: as §1

[18] = tested on: Staphylococcus aureus VGH 84-46; test: in vitro antibacterial MIC, agar plate dilution; assay type: cell-based; details: Staphylococcus aureus, VGH8446, 18 h, 35° C., read-out: MIC
Procedure, shortened: as §1

[19] = tested on: Staphylococcus epidermidis CMC 83-135; test: in vitro antibacterial MIC, agar plate dilution; assay type: cell-based; details: CMC83135, 18 hours, 35° C., read-out: MIC
Procedure, shortened: as §1

[20] = tested on: Staphylococcus epidermidis IO 83-58; test: in vitro antibacterial MIC, agar plate dilution; assay type: cell-based; details: IO8358, 18 hours, 35° C., read-out: MIC
Procedure, shortened: as §1

[21] = tested on: Staphylococcus epidermidis VGH 84-40; test: in vitro antibacterial MIC, agar plate dilution; assay type: cell-based; details: VGH8440, 18 hours, 35° C., read-out: MIC
Procedure, shortened: as §1

[22] = tested on: Streptococcus faecalis ATTC 29212; test: in vitro antibacterial MIC, agar plate dilution; assay type: cell-based; details: Enterococcus faecalis, ATTC29212, 18 hours, 35° C., read-out: MIC
Procedure, shortened: as §1

[23] = tested on: Enterobacter cloacae MOR 83-30; test: in vitro antibacterial MIC, agar plate dilution; assay type: cell-based; details: MOR8330, 18 hours, 35° C.
Procedure, shortened: as §1

Escherichia coli 311 = test: in vivo antibacterial activity of Example 131, survival of infected mice (Table IV); design: species or system Charles River CD-1 female mice
Procedure: (§2) The in vivo antibacterial activity of 1-cyclopropyl-6-fluoro-7-[3-(fluoromethyl)-1-piperazinyl]-1,4-dihydro-4-oxo-3-quinolinecarboxylic acid (Example 131) was established in the following test.
(§3) Charles River CD-1 female mice, weighing 20±2 g were infected with either Staphylococcus aureus Smith or Escherichia coli 311. A single oral or subcutaneous dose of 1-cyclopropyl-6-fluoro-7-[3-(fluoromethyl)-1-piperazinyl]-1,4-dihydro-4-oxo-3-quinolinecarboxylic acid was administered 1/2 hour after infection. […]

[24] = tested on: Staphylococcus aureus Smith; test: as above; design: species or system Charles River CD-1 female mice
Procedure: as §2, §3

[25] = Enterobacter cloacae, MOR8430, 18 h, read-out: MIC
[26] = Staphylococcus aureus, 18 h, read-out: MIC
[27] = subcutaneous, 0.5 mg/kg single dose
[28] = subcutaneous, 1 mg/kg single dose
[29] = subcutaneous, 2 mg/kg single dose

Row | SMILES | MIC [1, 25] [µg/mL] | MIC [2] [µg/mL] | MIC [3] [µg/mL] | MIC [4] [µg/mL] | MIC [5] [µg/mL] | MIC [6] [µg/mL] | MIC [7] [µg/mL] | MIC [8, 26] [µg/mL] | MIC [9] [µg/mL] | further results
1 | CCn1cc(C(=O)O)c(=O)c2cc(F)c(N3CCNC(c4ccoc4)C3)cc21 (stereo not drawn) [Example 94, 1-Ethyl-6-fluoro-1,4-dihydro-4-oxo-7-[3-(3-furanyl)-1-piperazinyl]-3-quinolinecarboxylic acid] | 4 (≈ 10.4 µM) | 0.25 (≈ 0.649 µM) | 0.12 (≈ 0.311 µM) | 1 (≈ 2.59 µM) | 16 (≈ 41.5 µM) | 8 (≈ 20.8 µM) | 0.5 (≈ 1.3 µM) | 0.12 (≈ 0.311 µM) | 4 (≈ 10.4 µM) | 
2 | O=C(O)c1cn(C2CC2)c2cc(N3CCNC(CF)C3)c(F)cc2c1=O (stereo not drawn) [Example 131, 1-Cyclopropyl-6-fluoro-7-[3-(fluoromethyl)-1-piperazinyl]-1,4-dihydro-4-oxo-3-quinolinecarboxylic acid] |  | 0.03 (≈ 0.0826 µM) | 0.12 (≈ 0.33 µM) | 0.12 (≈ 0.33 µM) | 16 (≈ 44 µM) | 1 (≈ 2.75 µM) | 0.12 (≈ 0.33 µM) | 0.06 (≈ 0.165 µM) | 2 (≈ 5.5 µM) | MIC [23]: 0.12 µg/mL (≈ 0.33 µM); Survival Ratio 7 Days After Infection (Escherichia coli 311; oral, 0.12 mg/kg single dose): 0/10; Survival Ratio 7 Days After Infection (Escherichia coli 311; oral, 0.25 mg/kg single dose): 1/10; Survival Ratio 7 Days After Infection (Escherichia coli 311; oral, 0.5 mg/kg single dose): 3/10; Survival Ratio 7 Days After Infection (Escherichia coli 311; oral, 1 mg/kg single dose): 7/10; Survival Ratio 7 Days After Infection (Escherichia coli 311; oral, 2 mg/kg single dose): 10/10; Survival Ratio 7 Days After Infection (Escherichia coli 311; subcutaneous, 0.12 mg/kg single dose): 0/10; Survival Ratio 7 Days After Infection (Escherichia coli 311; subcutaneous, 0.25 mg/kg single dose): 2/10; Survival Ratio 7 Days After Infection (Escherichia coli 311; [27]): 7/10; Survival Ratio 7 Days After Infection (Escherichia coli 311; [28]): 10/10; Survival Ratio 7 Days After Infection (Escherichia coli 311; [29]): 10/10; Survival Ratio 7 Days After Infection ([24]; oral, 1 mg/kg single dose): 0/15; Survival Ratio 7 Days After Infection ([24]; oral, 2 mg/kg single dose): 2/15; Survival Ratio 7 Days After Infection ([24]; oral, 4 mg/kg single dose): 10/15; Survival Ratio 7 Days After Infection ([24]; oral, 8 mg/kg single dose): 15/15; Survival Ratio 7 Days After Infection [24, 27]: 0/15; Survival Ratio 7 Days After Infection [24, 28]: 2/15; Survival Ratio 7 Days After Infection [24, 29]: 14/15; Survival Ratio 7 Days After Infection ([24]; subcutaneous, 4 mg/kg single dose): 15/15
3 | CN1CCN(c2c(F)c(F)c3c(=O)c(C(=O)O)cn(C4CC4)c3c2F)CC1 [Example 111, 1Cyclopropyl-5,6,8-trifluoro-1,4-dihydro-7-(4-methyl-1-piperazinyl) -4-oxo-3-quinolinecarboxylic acid] | 0.06 (≈ 0.157 µM) | 0.004 (≈ 0.0105 µM) | 0.004 (≈ 0.0105 µM) | 0.06 (≈ 0.157 µM) | 4 (≈ 10.5 µM) | 4 (≈ 10.5 µM) | 0.12 (≈ 0.315 µM) | 0.25 (≈ 0.656 µM) | 2 (≈ 5.24 µM) | 

The remaining compounds from weak to strong by MIC [2], led by results:

Row | MIC [1, 25] [µg/mL] | MIC [2] [µg/mL] | MIC [3] [µg/mL] | MIC [4] [µg/mL] | MIC [5] [µg/mL] | MIC [6] [µg/mL] | MIC [7] [µg/mL] | MIC [8, 26] [µg/mL] | MIC [9] [µg/mL] | SMILES | further results
4 | > 16 | 4 (≈ 9.67 µM) | 8 (≈ 19.3 µM) | > 16 | > 16 | > 16 | 8 (≈ 19.3 µM) | 0.25 (≈ 0.605 µM) | 16 (≈ 38.7 µM) | CCn1cc(C(=O)O)c(=O)c2cc(F)c(N3CCN(C)C(c4ccnn4C)C3)cc21 (stereo not drawn) [Example 110, 1-Ethyl-6-fluoro-1,4-dihydro-7-[4-methyl-3-(1-methyl-1H-pyrazol-5-yl) -1-piperazinyl]-4-oxo-3-quinolinecarboxylic acid] | 
5 | > 16 | 2 (≈ 5.05 µM) | 2 (≈ 5.05 µM) | 8 (≈ 20.2 µM) | > 16 | > 16 | 8 (≈ 20.2 µM) | 0.5 (≈ 1.26 µM) | > 16 | CCn1cc(C(=O)O)c(=O)c2cc(F)c(N3CCNC(c4ccncc4)C3)cc21 (stereo not drawn) [Example 123] | 
6 |  | 0.06 (≈ 0.151 µM) | 0.12 (≈ 0.302 µM) | 0.5 (≈ 1.26 µM) | 16 (≈ 40.3 µM) | 8 (≈ 20.1 µM) | 0.25 (≈ 0.629 µM) |  | 1 (≈ 2.52 µM) | O=C(O)c1cn(C2CC2)c2cc(N3CCNC(c4ccco4)C3)c(F)cc2c1=O (stereo not drawn) [Example 62, 1-Cyclopropyl-6-fluoro-7-[3-(2-furanvl)-1-piperazinyl]-1,4-dihydro-4-oxo-3-quinolinecarboxylic acid] | MIC [10]: 0.06 µg/mL (≈ 0.151 µM); MIC [11]: 0.12 µg/mL (≈ 0.302 µM); MIC ([1]; 18 hours): 1 µg/mL (≈ 2.52 µM); MIC (Escherichia coli NAR 311): 0.5 µg/mL (≈ 1.26 µM); MIC [12]: 0.06 µg/mL (≈ 0.151 µM); MIC (Klebsiella pneumoniae AD): 0.12 µg/mL (≈ 0.302 µM); MIC [13]: 0.12 µg/mL (≈ 0.302 µM); MIC [14]: 0.06 µg/mL (≈ 0.151 µM); MIC [15]: 0.06 µg/mL (≈ 0.151 µM); MIC [16]: 0.12 µg/mL (≈ 0.302 µM); MIC [17]: 0.03 µg/mL (≈ 0.0755 µM); MIC ([8]; 18 hours): 0.015 µg/mL (≈ 0.0377 µM); MIC [18]: 0.015 µg/mL (≈ 0.0377 µM); MIC [19]: 0.03 µg/mL (≈ 0.0755 µM); MIC [20]: 0.015 µg/mL (≈ 0.0377 µM); MIC [21]: 0.03 µg/mL (≈ 0.0755 µM); MIC [22]: 0.25 µg/mL (≈ 0.629 µM)
